Test results: patent publication US12643871B2, “Aryl formamide compound containing chiral sulfur oxide or salt thereof, preparation method, herbicidal composition and use thereof” (Qingdao Kingagroot Chemical Compound Co., Ltd., priority 2019, dated 2026)

Assays:
Green Setaria viridis = assay: Comparison experiment (post-emergence) against racemate / S configuration; assay type: in vivo; settings: 30 g/ha; Table 6, post-seedling test conditions
Excerpt: (§1) The above growth control rates are fresh weight control rates.
Experiment on weeding effect in post-emergence stage: monocotyledonous and dicotyledonous weed seeds (Descurainia sophia, Capsella bursa-pastoris, Galium aparine, Stellaria media, Lithospermum arvense, Rorippa indica, Alopecurus aequalis, Beckmannia syzigachne, Sclerochloa dura, Phleum paniculatum, Bromus japonicus, Aegilops tauschii, Phalaris arundinacea, Amaranthus retroflexus, Chenopodiaceae, Commelina communis, Sonchus arvensis, convolvulus arvensis, Cirsium setosum, Solanum nigrum, Acalypha australis, Digitaria sanguinalis, Echinochloa crusgalli, Setaria viridis, Setaria glauca, Leptochloa chinensis, Monochoria vaginalis, Sagittaria trifolia, Scirpus juncoides, Cyperus rotundus, Cyperus iria, Cyperus difformis, Fimbristylis, Portulaca oleracea, Xanthium sibiricum, Pharbitis nil) and major crop seeds (wheat, corn, rice, soybean, cotton, oilseed rape, millet, sorghum, potato, sesame, ricinus) were placed in plastic pots filled with soil, then covered with 0.5-2 cm of soil, allowed to grow in a good greenhouse environment. […] The tested compounds of the present invention were respectively dissolved in acetone, then added with Tween 80 and 1.5 liter/ha of emulsifiable concentrate of methyl oleate as synergist, diluted with a certain amount of water to obtain a solution with a certain concentration, and sprayed with a spray tower onto the plants. […]
(§2) If there is no clear marker, the post-seedling test conditions are the same as above, and the experimental results are shown in Tables 4-7.

Digitaria sanguinalis [1] = assay: as above; assay type: in vivo; settings: Digitaria sanguinalis, post-emergence, Table 6, post-seedling test conditions
Excerpt: as §1
(§3) Experiment on weeding effect in post-emergence stage: monocotyledonous and dicotyledonous weed seeds (Descurainia sophia, Capsella bursa-pastoris, Galium aparine, Stellaria media, Lithospermum arvense, Rorippa indica, Alopecurus aequalis, Beckmannia syzigachne, Sclerochloa dura, Phleum paniculatum, Bromus japonicus, Aegilops tauschii, Phalaris arundinacea, Amaranthus retroflexus, Chenopodiaceae, Commelina communis, Sonchus arvensis, convolvulus arvensis, Cirsium setosum, Solanum nigrum, Acalypha australis, Digitaria sanguinalis, Echinochloa crusgalli, Setaria viridis, Setaria glauca, Leptochloa chinensis, Monochoria vaginalis, Sagittaria trifolia, Scirpus juncoides, Cyperus rotundus, Cyperus iria, Cyperus difformis, Fimbristylis, Portulaca oleracea, Xanthium sibiricum, Pharbitis nil) and major crop seeds (wheat, corn, rice, soybean, cotton, oilseed rape, millet, sorghum, potato, sesame, ricinus) were placed in plastic pots filled with soil, then covered with 0.5-2 cm of soil, allowed to grow in a good greenhouse environment. After 2 weeks of sowing, the test plants were treated in the 2 leaf stage. The tested compounds of the present invention were respectively dissolved in acetone, then added with Tween 80 and 1.5 liter/ha of emulsifiable concentrate of methyl oleate as synergist, diluted with a certain amount of water to obtain a solution with a certain concentration, and sprayed with a spray tower onto the plants. After the application, the plants were cultured for 15 days in the greenhouse, and then the experimental results of the weeding were counted. The doses of the used compounds were 500, 250, 125, 60, 30, 15 g/ha, and the averages were obtained by repeating for three times.
as §2

Alopecurus japonicas = assay: as above; assay type: in vivo; settings: Table 6, post-seedling test conditions
Excerpt: as §1, §3, §2

Leptochloa chinensis = assay: Weed control effect evaluation in rice field; assay type: in vivo; settings: rice field pot, 14 days after treatment
Excerpt: (§4) The activity level criteria for harmful plant damage (i.e., growth control rate) are as follows: • Level 5: growth control rate is above 85%; • Level 4: growth control rate is greater than or equal to 60% and less than 85%; • Level 3: growth control rate is greater than or equal to 40% and less than 60%; • Level 2: growth control rate is greater than or equal to 20% and less than 40%; • Level 1: growth control rate is greater than or equal to 5% and less than 20%; • Level 0: growth control rate is less than 5%.
(§5) Rice field soil was loaded into a 1/1,000,000 ha pot. The seeds of Echinochloa crusgali, Scirpus juncoides, Bidens tripartita, Sagittaria trifolia, Monochoria vaginalis and Leptochloa chinensis were sowed and gently covered with soil, then left to stand still in greenhouse in the state of 0.5-1 cm of water storage. The tuber of Sagittaria trifolia was planted in the next day or 2 days later. It was kept at 3-4 cm of water storage thereafter. The weeds were treated by dripping the WP or SC water diluents prepared according to the common preparation method of the compounds of the present invention with pipette homogeneously to achieve specified effective amount when Echinochloa crusgali, Scirpus juncoides, Bidens tripartita, Monochoria vaginalis and Leptochloa chinensis reached 0.5 leaf stage and Sagittaria trifolia reached the time point of primary leaf stage.
(§6) The fertility condition of Echinochloa crusgali, Scirpus juncoides, Bidens tripartita, Leptochloa chinensis, Sagittaria trifolia and Monochoria vaginalis 14 days after the treatment of the compound of the invention and the fertility condition of rice 21 days after the treatment of the compound of the invention respectively with the naked eye. Evaluate the weed control effect with 0-5 activity standard level. Many compounds show excellent activity and selectivity.

Echinochloa crusgali [2] = assay: Weed control effect evaluation in rice field; assay type: in vivo; settings: rice field pot, 14 days after treatment, ALS-inhibitor resistant weed from Heilongjiang
Excerpt: as §4, §5, §6

Sagittaria trifolia = assay: Weed control effect evaluation in rice field; assay type: in vivo; settings: rice field pot, 14 days after treatment, ALS-inhibitor resistant weed from Heilongjiang
Excerpt: as §4, §5, §6

Monochoria vaginalis = assay: Weed control effect evaluation in rice field; assay type: in vivo; settings: rice field pot, 14 days after treatment, ALS-inhibitor resistant weed from Heilongjiang
Excerpt: as §4, §5, §6

Amaranthus retroflexus = assay: Weeding effect in post-emergence stage; assay type: in vivo; settings: 250 g/ha; 2 leaf stage; 15 days after application; fresh weight control rate
How it was run: (§7)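 Two-leaf-stage pot plants, spray-tower application at 500/250/125/60/30/15 g/ha with methyl oleate EC synergist; fresh weight control level (0–5) read at 15 days post-treatment, three replicates averaged.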

Echinochloa crusgali [3] = assay: Weeding effect in post-emergence stage; assay type: in vivo; settings: 250 g/ha; 2 leaf stage; 15 days after application; fresh weight control rate
How it was run: as §7

Digitaria sanguinalis [4] = assay: Weeding effect in post-emergence stage; assay type: in vivo; settings: 250 g/ha; 2 leaf stage; 15 days after application; fresh weight control rate
How it was run: as §7

Setaria viridis = assay: Weeding effect in post-emergence stage; assay type: in vivo; settings: 250 g/ha; 2 leaf stage; 15 days after application; fresh weight control rate
How it was run: as §7

Abutilon theophrasti = assay: Weeding effect in post-emergence stage; assay type: in vivo; settings: 250 g/ha; 2 leaf stage; 15 days after application; fresh weight control rate
How it was run: as §7

Rice = assay: Transplanted rice safety evaluation; assay type: in vivo, rice (japonica rice/Indica rice); settings: 60 g/ha; transplanted 3 leaf stage rice, 21 days after treatment
Excerpt: as §4
In addition, the rice field soil that loaded into the 1/1,000,000 ha pot was leveled to keep water storage at 3-4 cm depth. The 3 leaf stage rice (japonica rice/Indica rice) was transplanted at 3 cm of transplanting depth the next day. The compound of the present invention was treated by the same way after 5 days of transplantation.
as §6

| Compound | Results of comparison experiment, Green Setaria viridis (30 g/ha) (Green Setaria viridis) [%] | pest or weed control at 30 g/ha (Digitaria sanguinalis [1]) [%] | Results of comparison experiment, Alopecurus japonicas (120 g/ha) (Alopecurus japonicas) [%] | Herbicidal effects of compounds, Leptochloa chinensis, 0-5 activity standard level (Leptochloa chinensis; 60 g/ha) | Herbicidal effects of compounds, Echinochloa crusgali, 0-5 activity standard level (Echinochloa crusgali [2]; 60 g/ha) | Herbicidal effects of compounds, Sagittaria trifolia, 0-5 activity standard level (Sagittaria trifolia; 60 g/ha) | Herbicidal effects of compounds, Monochoria vaginalis, 0-5 activity standard level (Monochoria vaginalis; 60 g/ha) | weeding effect in post-emergence stage, activity level (growth control rate), Amaranthus retroflexus (Amaranthus retroflexus) | weeding effect in post-emergence stage, activity level (growth control rate), Echinochloa crusgali (Echinochloa crusgali [3]) | weeding effect in post-emergence stage, activity level (growth control rate), Digitaria sanguinalis (Digitaria sanguinalis [4]) | weeding effect in post-emergence stage, activity level (growth control rate), Setaria viridis (Setaria viridis) | weeding effect in post-emergence stage, activity level (growth control rate), Abutilon theophrasti (Abutilon theophrasti) | Herbicidal effects of compounds, Rice, 0-5 activity standard level (Rice) | Herbicidal effects of compounds, Leptochloa chinensis, 0-5 activity standard level (Leptochloa chinensis; 30 g/ha) | Herbicidal effects of compounds, Echinochloa crusgali, 0-5 activity standard level (Echinochloa crusgali [2]; 30 g/ha) | Herbicidal effects of compounds, Sagittaria trifolia, 0-5 activity standard level (Sagittaria trifolia; 30 g/ha) | Herbicidal effects of compounds, Monochoria vaginalis, 0-5 activity standard level (Monochoria vaginalis; 30 g/ha) |
| --- | --- | --- | --- | --- | --- | --- | --- | --- | --- | --- | --- | --- | --- | --- | --- | --- | --- |
| CC[S+]([O-])c1c(C(F)(F)F)ccc(C(=O)Nc2nnc(C)o2)c1SC (stereo not drawn) [Control Compound B′] | 30 | 30 | 0 | – | – | – | – | – | – | – | – | – | – | – | – | – | – |
| CCS(=O)(=O)c1c(C(F)(F)F)ccc(C(=O)Nc2nnc(C)o2)c1SC [Control Compound C′] | 80 | 10 | 20 | – | – | – | – | – | – | – | – | – | – | – | – | – | – |
| Cc1nnc(NC(=O)c2ccc(C(F)(F)F)c([S@+]([O-])C3COC3)c2F)o1 [Compound 79] | – | – | – | 5 (Level 5: growth control rate is above 85%) | 5 (Level 5: growth control rate is above 85%) | 5 (Level 5: growth control rate is above 85%) | 5 (Level 5: growth control rate is above 85%) | 5 (Level 5: growth control rate is above 85%) | 5 (Level 5: growth control rate is above 85%) | 5 (Level 5: growth control rate is above 85%) | 5 (Level 5: growth control rate is above 85%) | 5 (Level 5: growth control rate is above 85%) | 0 (Level 0: growth control rate is less than 5%) | – | – | – | – |
| Cc1nnc(NC(=O)c2ccc(C(F)(F)F)c([S@+]([O-])CCCCl)c2F)o1 [Compound 37] | – | – | – | 5 (Level 5: growth control rate is above 85%) | 5 (Level 5: growth control rate is above 85%) | 5 (Level 5: growth control rate is above 85%) | 5 (Level 5: growth control rate is above 85%) | 5 (Level 5: growth control rate is above 85%) | 5 (Level 5: growth control rate is above 85%) | 5 (Level 5: growth control rate is above 85%) | 5 (Level 5: growth control rate is above 85%) | 5 (Level 5: growth control rate is above 85%) | 0 (Level 0: growth control rate is less than 5%) | – | – | – | – |
| COc1cnc(OC)n2nc(NS(=O)(=O)c3c(OCC(F)F)cccc3C(F)(F)F)nc12 [Penoxsulam, reference compound] | – | – | – | – | – | – | – | – | – | – | – | – | – | 1 (Level 1: growth control rate is greater than or equal to 5% and less than 20%) | 0 (Level 0: growth control rate is less than 5%) | 0 (Level 0: growth control rate is less than 5%) | 1 (Level 1: growth control rate is greater than or equal to 5% and less than 20%) |
